Experimental findings from ChEMBL document CHEMBL1150286, “Discovery and optimization of triazolopyridazines as potent and selective inhibitors of the c-Met kinase” (J Med Chem, 2008) are described below.

Data set [1] in a line: Clearance in rat liver microsomes. The format is ADME, Microsome.
Data set [2] can be described thus: Clearance in mouse liver microsomes. The class given is ADME, Microsome. On the technique in general: Liver microsomes are a subcellular fraction often used to study metabolism.
The nature of data set [3]: Clearance in Sprague-Dawley rat at 0.5 mg/kg, iv. The format is ADME, organism-based. Further details: dose 0.5 mg/kg, route intravenous. The settings on record: in vivo.
The nature of data set [4]: Volume of distribution in steady state in Sprague-Dawley rat at 0.5 mg/kg, iv. The format is ADME, organism-based. Also noted: dose 0.5 mg/kg, route intravenous. The settings on record: in vivo, read-out: Vdss.
The nature of data set [5]: Half life in Sprague-Dawley rat at 0.5 mg/kg, iv. The settings on record: in vivo. Also noted: dose 0.5 mg/kg, route intravenous. The class given is ADME, organism-based.
Data set [6] in a line: AUC (0 to infinity) in Sprague-Dawley rat at 2 mg/kg, po. The format is ADME, organism-based. Also noted: time infinity, dose 2 mg/kg, route oral. The settings on record: plasma.
A short description of data set [7]: Bioavailability in Sprague-Dawley rat at 2 mg/kg, po. The class given is ADME, organism-based. The settings on record: in vivo.
Data set [8] addresses T1, Hepatocyte growth factor receptor (Homo sapiens, UniProt P08581).
Description: Inhibition of HGF-mediated c-Met phosphorylation in serum-starved human PC2 cells
A short description of data set [9]: Drug level in orally dosed mouse plasma after 6 hrs. The format is ADME, organism-based. The settings on record: po.
The next data set deals with Mus musculus. In words: Inhibition of HGF-mediated c-Met phosphorylation in orally dosed mouse liver. The class given is functional. The settings on record: po.
In data set [10] the target is Mast/stem cell growth factor receptor Kit (Homo sapiens) (UniProt P10721). In words: Inhibition of cKit.
The target of data set [11] is Tyrosine-protein kinase ABL1 (Homo sapiens) (UniProt P00519). The data set is described as follows: Inhibition of Abl.
For data set [12], the target named is Tyrosine-protein kinase JAK2 (Homo sapiens) (UniProt O60674). In words: Inhibition of Jak2.
The target of data set [13] is Ribosomal protein S6 kinase alpha-5 (Homo sapiens) (UniProt O75582). The data set is described as follows: Inhibition of Msk1.
A short description of data set [14]: Inhibition of PKAalpha.
In data set [15] the target is Mitogen-activated protein kinase 3 (Homo sapiens) (UniProt P27361). In words: Inhibition of Erk1.
The target of data set [16] is RAC-alpha serine/threonine-protein kinase (Homo sapiens) (UniProt P31749). In words: Inhibition of PKBalpha.
For data set [17], the target named is T1, Hepatocyte growth factor receptor. In words: Inhibition of c-Met by HTRF assay. (In TR-FRET formats the signal depends on donor and acceptor labels being close together.)
A short description of data set [18]: Clearance in Sprague-Dawley rat at 0.25 mg/kg, iv. The class given is ADME, organism-based. Also noted: dose 0.25 mg/kg, route intravenous. The settings on record: in vivo.
Data set [19] can be described thus: Volume of distribution in steady state in Sprague-Dawley rat at 0.25 mg/kg, iv. The settings on record: in vivo, read-out: Vdss. The class given is ADME, organism-based. Also noted: dose 0.25 mg/kg, route intravenous.
Data set [20] in a line: Half life in Sprague-Dawley rat at 0.25 mg/kg, iv. The format is ADME, organism-based. Also noted: dose 0.25 mg/kg, route intravenous. The settings on record: in vivo.
The target of data set [21] is Vascular endothelial growth factor receptor 2 (Homo sapiens) (UniProt P35968). In words: Inhibition of KDR.
Data set [22] concerns the target Tyrosine-protein kinase Lck (Homo sapiens) (UniProt P06239). In words: Inhibition of Lck.
The target in data set [23] is Proto-oncogene tyrosine-protein kinase Src (Homo sapiens) (UniProt P12931). In words: Inhibition of Src.
The target in data set [24] is Insulin-like growth factor 1 receptor (Homo sapiens) (UniProt P08069). The data set is described as follows: Inhibition of IGF1R.
In data set [25] the target is Tyrosine-protein kinase BTK (Homo sapiens) (UniProt Q06187). In words: Inhibition of Btk.
Data set [26] deals with Angiopoietin-1 receptor (Homo sapiens) (UniProt Q02763). The data set is described as follows: Inhibition of Tie2.
A short description of data set [27]: Inhibition of p38.
Data set [28] concerns the target Mitogen-activated protein kinase 9 (Homo sapiens) (UniProt P45984). In words: Inhibition of JNK2.
The target of data set [29] is Cyclin-dependent kinase 5 (Homo sapiens) (UniProt Q00535). In words: Inhibition of CDK5.
The target of data set [30] is Aurora kinase A (Homo sapiens) (UniProt O14965). In words: Inhibition of Aur2.

The term microsomal CLint denotes a measure of how fast metabolising enzymes remove a compound, apart from limits set by blood flow. High values mean rapid turnover, low ones slow turnover. What is called clearance is the rate of elimination divided by the concentration. A high value points to efficient removal. The half-life is how long it takes for the measured level to halve. Lower therefore signals fast loss. Broadly, the AUC(0-inf) is total exposure, with the tail of the curve extrapolated. Read a high AUC(0-inf) as high exposure. For orientation: bioavailability means the share of a dose that reaches the circulation, judged against a reference dose that is usually intravenous. Read a low bioavailability as little systemic uptake. The term IC50 denotes the concentration that inhibits the measured activity by half. Low readings indicate greater potency in that assay, high ones weaker potency in that assay. As to `COc1ccc2c(OCc3nnc4ccc(-c5ccccc5)nn34)ccnc2c1` [AMG-208], the microsomal CLint stood at 131 µL/min/mg in data set [1] and 122 µL/min/mg in [2]. The compound further showed a clearance in data set [3] of 6.17 mL/min/kg. In addition, the Vd in [4] was 0.38 L/kg. In addition, in data set [5], the half-life was 1 h. In data set [6], this compound gave an AUC(0-inf) of 2520 ng·h/mL. For the same compound, the bioavailability in [7] worked out at 43%. Besides, in data set [8], the IC50 turned out to be 46 nM.

Turning to `COc1ccc2c(OCc3nnc4ccc(-c5cc(F)c(F)c(F)c5)nn34)ccnc2c1`, the concentration at 6 h in [9] was 6.7 µM. Also, the ED90 in the data set on Mus musculus is 30 mg/kg. The Activity in data set [10], in data set [11], in [12], in data set [13], in data set [14] and in [15] was above 10 µM in each case. The Activity in data set [16], in [21], in data set [22], in data set [23], in data set [24] and in data set [25] was above 10 µM in each case. The Activity in data set [26], in data set [27], in [28], in data set [29] and in [30] was above 10 µM in each case. The figures for the half-inhibitory concentration (IC50) in [17] and in [8] were 4 nM and 7 nM, respectively. In addition, the values for the microsomal CLint in data set [1] and in data set [2] were 190 µL/min/mg and 156 µL/min/mg, respectively. This compound also had a clearance in [18] of 0.967 mL/min/kg. Moreover, the Vd in [19] was 0.152 L/kg. This compound showed a half-life in data set [20] of 3.5 h. The AUC(0-inf) in data set [6] was 7840 ng·h/mL. This compound returned a bioavailability in [7] of 22%.

For the compound `COc1ccc2c(OCc3nnc4ccc(-c5cc(C)ns5)nn34)ccnc2c1`, the microsomal CLint in [1] came to 420 µL/min/mg; in data set [2], 173 µL/min/mg. In addition, in data set [18], the clearance was 4 mL/min/kg. In addition, the Vd in data set [19] was determined as 0.35 L/kg. In addition, the half-life in data set [20] was 2.58 h. In data set [6], this compound had an AUC(0-inf) of 5100 ng·h/mL. The bioavailability in data set [7] stood at 59%.
